Source: ChEMBL document CHEMBL3991601, “The target landscape of clinical kinase drugs” (Science, 2017)
Activity calls are given as the source filed them.

Experiments:
[1] = target: Serine/threonine-protein kinase pim-2 (Homo sapiens, UniProt Q9P1W9)
[2] = target: Membrane-associated progesterone receptor component 1 (Homo sapiens, UniProt O00264)
[3] = target: T1, Long-chain-fatty-acid--CoA ligase 5 (Homo sapiens, UniProt Q9ULC5)
T1 sequence (Q9ULC5 whole entry): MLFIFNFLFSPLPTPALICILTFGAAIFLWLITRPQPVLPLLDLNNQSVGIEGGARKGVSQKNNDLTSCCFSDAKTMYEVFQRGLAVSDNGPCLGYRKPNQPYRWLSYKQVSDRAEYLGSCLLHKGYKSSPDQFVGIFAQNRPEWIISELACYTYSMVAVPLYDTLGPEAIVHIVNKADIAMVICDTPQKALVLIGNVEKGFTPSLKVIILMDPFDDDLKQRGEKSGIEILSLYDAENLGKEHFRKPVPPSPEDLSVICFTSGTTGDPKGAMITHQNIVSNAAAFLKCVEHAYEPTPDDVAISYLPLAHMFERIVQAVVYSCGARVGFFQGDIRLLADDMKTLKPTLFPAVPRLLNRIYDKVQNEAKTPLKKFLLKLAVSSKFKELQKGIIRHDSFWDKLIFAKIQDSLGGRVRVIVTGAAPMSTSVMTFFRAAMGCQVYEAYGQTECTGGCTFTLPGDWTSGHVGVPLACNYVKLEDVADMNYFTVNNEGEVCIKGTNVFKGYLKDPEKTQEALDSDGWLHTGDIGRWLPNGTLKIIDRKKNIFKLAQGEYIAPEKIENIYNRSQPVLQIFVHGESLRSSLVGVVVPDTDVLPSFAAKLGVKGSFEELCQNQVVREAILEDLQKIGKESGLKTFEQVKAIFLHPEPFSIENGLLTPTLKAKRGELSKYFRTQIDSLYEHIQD

[4] = target: Ras-related protein Rab-6A (Homo sapiens, UniProt P20340)
[5] = target: T2, Electron transfer flavoprotein subunit beta (Homo sapiens, UniProt P38117)
T2 sequence (P38117 whole entry): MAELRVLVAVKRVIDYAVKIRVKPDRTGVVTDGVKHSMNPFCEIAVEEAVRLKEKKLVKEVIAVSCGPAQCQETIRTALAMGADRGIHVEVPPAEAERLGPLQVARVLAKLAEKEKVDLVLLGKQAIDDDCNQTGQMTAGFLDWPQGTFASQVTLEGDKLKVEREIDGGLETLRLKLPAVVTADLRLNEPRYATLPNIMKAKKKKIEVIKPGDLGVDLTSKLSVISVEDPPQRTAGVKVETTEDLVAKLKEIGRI

[6] = target: T3, Breakpoint cluster region protein (Homo sapiens, UniProt P11274)
T3 sequence (P11274 whole entry): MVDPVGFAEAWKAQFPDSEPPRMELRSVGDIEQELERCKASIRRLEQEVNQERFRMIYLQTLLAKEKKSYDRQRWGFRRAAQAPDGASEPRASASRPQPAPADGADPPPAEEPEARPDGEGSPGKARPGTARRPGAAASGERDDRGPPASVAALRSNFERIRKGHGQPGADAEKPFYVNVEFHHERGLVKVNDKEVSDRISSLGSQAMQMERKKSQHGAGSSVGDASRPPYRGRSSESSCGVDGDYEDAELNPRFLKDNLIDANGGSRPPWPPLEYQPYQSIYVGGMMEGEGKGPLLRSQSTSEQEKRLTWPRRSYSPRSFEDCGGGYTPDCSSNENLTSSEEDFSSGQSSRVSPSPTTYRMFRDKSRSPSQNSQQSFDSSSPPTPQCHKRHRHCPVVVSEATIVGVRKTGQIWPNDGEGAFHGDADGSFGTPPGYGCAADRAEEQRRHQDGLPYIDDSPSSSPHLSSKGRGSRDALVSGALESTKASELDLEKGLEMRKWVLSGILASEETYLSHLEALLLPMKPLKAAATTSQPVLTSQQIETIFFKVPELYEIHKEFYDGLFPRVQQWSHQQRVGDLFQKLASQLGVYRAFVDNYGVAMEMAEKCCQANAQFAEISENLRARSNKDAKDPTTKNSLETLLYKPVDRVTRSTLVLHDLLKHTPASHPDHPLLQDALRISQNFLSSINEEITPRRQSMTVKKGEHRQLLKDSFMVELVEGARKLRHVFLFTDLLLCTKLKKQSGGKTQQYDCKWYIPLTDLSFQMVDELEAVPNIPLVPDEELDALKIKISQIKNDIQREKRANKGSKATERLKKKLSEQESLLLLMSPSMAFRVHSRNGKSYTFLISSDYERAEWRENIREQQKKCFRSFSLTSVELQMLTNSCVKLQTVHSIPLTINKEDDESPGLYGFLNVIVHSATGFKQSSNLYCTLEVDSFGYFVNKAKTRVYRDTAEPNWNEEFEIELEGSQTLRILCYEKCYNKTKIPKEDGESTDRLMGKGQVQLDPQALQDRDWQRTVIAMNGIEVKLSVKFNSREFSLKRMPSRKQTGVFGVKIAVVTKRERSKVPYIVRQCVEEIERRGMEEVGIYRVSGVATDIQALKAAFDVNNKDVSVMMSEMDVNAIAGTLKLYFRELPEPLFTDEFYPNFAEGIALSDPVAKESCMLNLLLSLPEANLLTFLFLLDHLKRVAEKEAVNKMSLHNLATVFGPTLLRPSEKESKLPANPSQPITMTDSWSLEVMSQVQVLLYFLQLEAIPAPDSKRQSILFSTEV

[7] = target: Serine/threonine-protein kinase PLK1 (Homo sapiens, UniProt P53350)
[8] = target: Serine/threonine-protein kinase Nek7 (Homo sapiens, UniProt Q8TDX7)
[9] = target: High affinity nerve growth factor receptor (Homo sapiens, UniProt P04629)
[10] = target: Cyclin-dependent kinase 17 (Homo sapiens, UniProt Q00537)
[11] = target: Cyclin-dependent kinase 3 (Homo sapiens, UniProt Q00526)
[12] = target: T4, Ras-related protein Rab-10 (Homo sapiens, UniProt P61026)
T4 sequence (P61026 whole entry): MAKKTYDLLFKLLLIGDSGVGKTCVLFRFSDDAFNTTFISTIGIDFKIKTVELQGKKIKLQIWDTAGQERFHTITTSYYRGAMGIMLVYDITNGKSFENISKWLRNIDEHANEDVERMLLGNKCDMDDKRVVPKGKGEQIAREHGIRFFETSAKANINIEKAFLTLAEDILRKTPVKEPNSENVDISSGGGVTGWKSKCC

[13] = target: Choline-phosphate cytidylyltransferase A (Homo sapiens, UniProt P49585)
Also: in the data inactive means no Kd found up to 30 µM.

Sequence of High affinity nerve growth factor receptor (P04629 whole entry): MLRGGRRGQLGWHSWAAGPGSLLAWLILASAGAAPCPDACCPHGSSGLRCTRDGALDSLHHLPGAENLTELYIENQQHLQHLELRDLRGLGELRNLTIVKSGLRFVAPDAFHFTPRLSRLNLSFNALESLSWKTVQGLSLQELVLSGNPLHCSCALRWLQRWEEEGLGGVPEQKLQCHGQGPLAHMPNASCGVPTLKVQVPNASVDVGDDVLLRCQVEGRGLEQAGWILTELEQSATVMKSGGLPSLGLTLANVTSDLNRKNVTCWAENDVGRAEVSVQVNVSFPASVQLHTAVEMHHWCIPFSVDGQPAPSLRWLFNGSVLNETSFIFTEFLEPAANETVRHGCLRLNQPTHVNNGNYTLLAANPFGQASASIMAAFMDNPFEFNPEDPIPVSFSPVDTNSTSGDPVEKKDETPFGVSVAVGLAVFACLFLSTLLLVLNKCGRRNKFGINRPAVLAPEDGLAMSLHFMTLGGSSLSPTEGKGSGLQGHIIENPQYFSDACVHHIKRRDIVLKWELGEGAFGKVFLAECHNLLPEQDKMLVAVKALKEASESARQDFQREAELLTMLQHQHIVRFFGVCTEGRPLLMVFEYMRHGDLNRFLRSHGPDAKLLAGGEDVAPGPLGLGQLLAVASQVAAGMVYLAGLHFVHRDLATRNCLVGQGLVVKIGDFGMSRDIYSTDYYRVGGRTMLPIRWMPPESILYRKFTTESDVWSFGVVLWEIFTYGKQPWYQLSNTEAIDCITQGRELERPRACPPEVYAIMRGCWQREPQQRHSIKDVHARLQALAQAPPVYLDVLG
Sequence of Serine/threonine-protein kinase Nek7 (Q8TDX7 whole entry): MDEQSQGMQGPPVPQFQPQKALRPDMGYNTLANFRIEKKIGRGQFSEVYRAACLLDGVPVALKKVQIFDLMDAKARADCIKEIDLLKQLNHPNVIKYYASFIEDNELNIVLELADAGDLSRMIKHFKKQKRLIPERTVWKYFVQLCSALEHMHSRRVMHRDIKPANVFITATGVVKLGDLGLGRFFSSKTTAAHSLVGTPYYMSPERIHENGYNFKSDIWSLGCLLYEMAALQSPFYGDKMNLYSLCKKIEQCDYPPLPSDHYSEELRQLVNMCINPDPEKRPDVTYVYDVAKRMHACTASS
Sequence of Serine/threonine-protein kinase PLK1 (P53350 whole entry): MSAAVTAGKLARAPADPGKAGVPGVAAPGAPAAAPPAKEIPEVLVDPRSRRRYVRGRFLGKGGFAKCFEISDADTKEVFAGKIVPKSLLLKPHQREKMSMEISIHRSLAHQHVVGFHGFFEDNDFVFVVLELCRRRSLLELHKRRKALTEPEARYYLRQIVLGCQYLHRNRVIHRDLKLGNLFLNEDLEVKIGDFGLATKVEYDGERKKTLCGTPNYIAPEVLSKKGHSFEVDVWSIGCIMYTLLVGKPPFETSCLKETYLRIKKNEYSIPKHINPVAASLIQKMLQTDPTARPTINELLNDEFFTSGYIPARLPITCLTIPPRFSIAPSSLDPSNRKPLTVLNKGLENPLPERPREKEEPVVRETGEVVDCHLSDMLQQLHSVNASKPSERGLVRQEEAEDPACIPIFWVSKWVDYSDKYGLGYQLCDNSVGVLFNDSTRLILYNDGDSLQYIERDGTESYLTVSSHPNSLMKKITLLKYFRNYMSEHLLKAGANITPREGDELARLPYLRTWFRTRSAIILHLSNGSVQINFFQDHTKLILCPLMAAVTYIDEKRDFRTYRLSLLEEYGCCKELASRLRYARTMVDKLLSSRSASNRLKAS
Sequence of Cyclin-dependent kinase 3 (Q00526 whole entry): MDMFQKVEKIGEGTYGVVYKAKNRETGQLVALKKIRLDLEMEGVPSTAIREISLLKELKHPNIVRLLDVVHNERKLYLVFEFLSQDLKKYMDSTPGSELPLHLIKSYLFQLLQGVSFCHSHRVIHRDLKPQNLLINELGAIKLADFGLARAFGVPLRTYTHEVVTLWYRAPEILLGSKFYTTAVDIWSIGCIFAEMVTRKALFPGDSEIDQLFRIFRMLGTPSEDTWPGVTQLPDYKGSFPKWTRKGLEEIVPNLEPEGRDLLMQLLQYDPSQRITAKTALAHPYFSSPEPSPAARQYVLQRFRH
Sequence of Choline-phosphate cytidylyltransferase A (P49585 whole entry): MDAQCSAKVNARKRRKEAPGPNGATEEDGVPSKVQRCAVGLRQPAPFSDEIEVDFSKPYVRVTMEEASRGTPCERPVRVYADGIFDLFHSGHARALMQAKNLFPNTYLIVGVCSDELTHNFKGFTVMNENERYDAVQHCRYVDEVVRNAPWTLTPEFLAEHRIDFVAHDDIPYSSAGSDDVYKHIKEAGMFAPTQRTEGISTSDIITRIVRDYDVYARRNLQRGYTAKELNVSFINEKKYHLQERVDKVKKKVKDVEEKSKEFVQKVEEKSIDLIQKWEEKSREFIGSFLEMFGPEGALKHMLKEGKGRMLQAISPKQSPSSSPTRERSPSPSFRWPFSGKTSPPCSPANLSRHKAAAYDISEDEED
Sequence of Cyclin-dependent kinase 17 (Q00537 whole entry): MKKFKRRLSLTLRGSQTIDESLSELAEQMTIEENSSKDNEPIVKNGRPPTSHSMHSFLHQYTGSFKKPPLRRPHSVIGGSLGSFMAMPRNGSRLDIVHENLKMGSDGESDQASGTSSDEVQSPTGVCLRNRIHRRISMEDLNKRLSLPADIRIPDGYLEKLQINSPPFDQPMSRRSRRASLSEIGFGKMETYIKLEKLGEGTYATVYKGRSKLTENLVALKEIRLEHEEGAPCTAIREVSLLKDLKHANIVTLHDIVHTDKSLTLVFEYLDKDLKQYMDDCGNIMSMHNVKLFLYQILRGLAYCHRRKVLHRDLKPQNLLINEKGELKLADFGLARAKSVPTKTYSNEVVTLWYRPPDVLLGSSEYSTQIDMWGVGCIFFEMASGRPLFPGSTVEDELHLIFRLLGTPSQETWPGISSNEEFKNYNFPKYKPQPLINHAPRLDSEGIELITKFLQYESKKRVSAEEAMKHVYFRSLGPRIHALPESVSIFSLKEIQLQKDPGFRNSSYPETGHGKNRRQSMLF
Sequence of Ras-related protein Rab-6A (P20340 whole entry): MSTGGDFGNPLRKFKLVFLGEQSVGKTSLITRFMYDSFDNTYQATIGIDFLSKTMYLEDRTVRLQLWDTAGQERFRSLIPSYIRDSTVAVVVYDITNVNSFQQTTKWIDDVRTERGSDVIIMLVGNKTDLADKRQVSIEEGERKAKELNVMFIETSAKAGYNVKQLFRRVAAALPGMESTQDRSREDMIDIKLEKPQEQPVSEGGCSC
Sequence of Serine/threonine-protein kinase pim-2 (Q9P1W9 whole entry): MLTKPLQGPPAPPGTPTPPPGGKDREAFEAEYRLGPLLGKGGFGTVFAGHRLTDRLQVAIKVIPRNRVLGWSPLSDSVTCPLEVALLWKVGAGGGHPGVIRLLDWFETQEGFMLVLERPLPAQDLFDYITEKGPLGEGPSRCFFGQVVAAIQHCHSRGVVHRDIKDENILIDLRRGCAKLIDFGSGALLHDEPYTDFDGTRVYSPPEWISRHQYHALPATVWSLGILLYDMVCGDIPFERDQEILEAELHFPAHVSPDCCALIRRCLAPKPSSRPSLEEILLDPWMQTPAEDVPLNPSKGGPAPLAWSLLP
Sequence of Membrane-associated progesterone receptor component 1 (O00264 whole entry): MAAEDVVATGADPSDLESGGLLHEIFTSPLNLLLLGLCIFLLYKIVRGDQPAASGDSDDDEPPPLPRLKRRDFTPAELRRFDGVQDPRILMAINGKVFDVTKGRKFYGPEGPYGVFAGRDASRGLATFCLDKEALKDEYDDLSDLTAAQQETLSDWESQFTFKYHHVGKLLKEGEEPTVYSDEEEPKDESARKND

SMILES | Kd [1] | Kd [2] | Kd [3] | Kd [4] | Kd [5] | Kd [6] | Kd [7] | Kd [8] | Kd [9] | Kd [10] | Kd [11] | Kd [12] | Kd [13]
O=C(Nc1c[nH]nc1-c1nc2cc(CN3CCOCC3)ccc2[nH]1)NC1CC1 [AT-9283] | > 30 µM (inactive) | > 30 µM (inactive) | > 30 µM (inactive) | > 30 µM (inactive) | > 30 µM (inactive) | 0.156 µM (active) | > 30 µM (inactive) | > 30 µM (inactive) | > 30 µM (inactive) | 1.15 µM (active) | > 30 µM (inactive) | > 30 µM (inactive) | > 30 µM (inactive)
Cc1cc(C(=O)NOCCO)c(Nc2ccc(I)cc2F)n(C)c1=O [AZD-8330] |  | > 30 µM (inactive) |  | > 30 µM (inactive) |  | > 30 µM (inactive) | > 30 µM (inactive) | > 30 µM (inactive) | > 30 µM (inactive) | > 30 µM (inactive) | > 30 µM (inactive) | > 30 µM (inactive) | > 30 µM (inactive)
Cn1cnc2c(F)c(Nc3ccc(Br)cc3F)c(C(=O)NOCCO)cc21 [BINIMETINIB] | > 30 µM (inactive) | > 30 µM (inactive) | > 30 µM (inactive) | > 30 µM (inactive) | > 30 µM (inactive) | > 30 µM (inactive) | > 30 µM (inactive) |  | > 30 µM (inactive) | > 30 µM (inactive) | > 30 µM (inactive) | > 30 µM (inactive) | > 30 µM (inactive)
COCC(=O)NC/C=C/c1ccc2ncnc(Nc3ccc(Oc4ccc(C)nc4)c(C)c3)c2c1 [CP-724714] | > 30 µM (inactive) | > 30 µM (inactive) | > 30 µM (inactive) | > 30 µM (inactive) | > 30 µM (inactive) | > 30 µM (inactive) | > 30 µM (inactive) |  | > 30 µM (inactive) | > 30 µM (inactive) | > 30 µM (inactive) | > 30 µM (inactive) | > 30 µM (inactive)
C#Cc1cccc(Nc2ncnc3cc(OC)c(OCCCCCCC(=O)NO)cc23)c1 [CUDC-101] | > 30 µM (inactive) | > 30 µM (inactive) | > 30 µM (inactive) | > 30 µM (inactive) | > 30 µM (inactive) | > 30 µM (inactive) | > 30 µM (inactive) |  | > 30 µM (inactive) | > 30 µM (inactive) | > 30 µM (inactive) | > 30 µM (inactive) | > 30 µM (inactive)
O=C(Nc1nc2cccc(-c3ccc(CN4CCS(=O)(=O)CC4)cc3)n2n1)C1CC1 [FILGOTINIB] | > 30 µM (inactive) | > 30 µM (inactive) |  | > 30 µM (inactive) | > 30 µM (inactive) | > 30 µM (inactive) | > 30 µM (inactive) | > 30 µM (inactive) | > 30 µM (inactive) | > 30 µM (inactive) | > 30 µM (inactive) | > 30 µM (inactive) | > 30 µM (inactive)
COc1ccc(S(=O)(=O)N(C(C)=O)c2ccccc2/C=C/c2cc[n+]([O-])cc2)cc1 [HMN-214] | > 30 µM (inactive) |  |  | > 30 µM (inactive) |  | > 30 µM (inactive) | > 30 µM (inactive) | > 30 µM (inactive) | > 30 µM (inactive) | > 30 µM (inactive) | > 30 µM (inactive) | > 30 µM (inactive) | > 30 µM (inactive)
CNC(=O)c1cccc2cc(Oc3ccnc4cc(OCC5(N)CC5)c(OC)cc34)ccc12 [LUCITANIB] | > 30 µM (inactive) | > 30 µM (inactive) |  | > 30 µM (inactive) | > 30 µM (inactive) | > 30 µM (inactive) | > 30 µM (inactive) | > 30 µM (inactive) | > 30 µM (inactive) | > 30 µM (inactive) | > 30 µM (inactive) | > 30 µM (inactive) | > 30 µM (inactive)
Cc1cnc(NC(=O)Nc2cc(Br)c(C)cc2OC[C@@H]2CNCCO2)cn1 [RABUSERTIB] | > 30 µM (inactive) | > 30 µM (inactive) | > 30 µM (inactive) | > 30 µM (inactive) | > 30 µM (inactive) | > 30 µM (inactive) | > 30 µM (inactive) | > 30 µM (inactive) | > 30 µM (inactive) | > 30 µM (inactive) | > 30 µM (inactive) | > 30 µM (inactive) | > 30 µM (inactive)
CNC(=O)c1cc(Oc2ccc(NC(=O)Nc3cc(C(C)(C)C)nn3-c3ccc4ncccc4c3)c(F)c2)ccn1 [REBASTINIB] | > 30 µM (inactive) |  |  | > 30 µM (inactive) |  | 0.381 µM (active) | > 30 µM (inactive) | > 30 µM (inactive) |  | 0.007 µM (active) | 2.65 µM (active) | > 30 µM (inactive) | > 30 µM (inactive)
CO[C@H]1C[C@@H]2CC[C@@H](C)[C@@](O)(O2)C(=O)C(=O)N2CCCC[C@H]2C(=O)O[C@H]([C@H](C)C[C@@H]2CC[C@@H](OC(=O)C(C)(CO)CO)[C@H](OC)C2)CC(=O)[C@H](C)/C=C(\C)[C@@H](O)[C@@H](OC)C(=O)[C@H](C)C[C@H](C)/C=C/C=C/C=C/1C [TEMSIROLIMUS] | > 30 µM (inactive) | > 30 µM (inactive) | > 30 µM (inactive) | > 30 µM (inactive) | > 30 µM (inactive) | > 30 µM (inactive) | > 30 µM (inactive) | > 30 µM (inactive) | > 30 µM (inactive) | > 30 µM (inactive) | > 30 µM (inactive) | > 30 µM (inactive) | > 30 µM (inactive)
CC(C)c1cc(CNc2nc(Nc3cc(C4CC4)[nH]n3)cc(N3CCN(C)CC3)n2)on1 [XL-228] | > 30 µM (inactive) |  | > 30 µM (inactive) | > 30 µM (inactive) |  | 0.003 µM (active) | > 30 µM (inactive) | > 30 µM (inactive) | 0.006 µM (active) | 0.005 µM | 0.429 µM | > 30 µM (inactive) | > 30 µM (inactive)
